Experimental data as given in PubChem BioAssay AID248 (DTP/NCI, 2004).
“And” between values parts separate entries of the source, which are not always exact repeats. Identical values can stand only once. Inconclusive results and toxic doses are left out. Rule as the data show it: active = T/C of 150% or more; inactive = T/C below 125%.

System: L1210 leukemia ip in BDF1 mice, survival T/C
Assay: NCI In Vivo Anticancer Drug Screen. Data for tumor model L1210 Leukemia (intraperitoneal) in B6D2F1 (BDF1) mice
Conditions: endpoint: mean survival time, higher = longer survival
Method in brief: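 Ratio derived from survival: compound-dosed mice over vehicle-dosed mice, all bearing a transplantable tumor.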

[1] = dose: 100.0 mg/kg/injection, schedule: Q01DX009 (ip), vehicle: Klucel (hydroxypropylcellulose) (HPC)
[2] = dose: 100.0 mg/kg/injection, schedule: Q04DX003 (ip), vehicle: Klucel (hydroxypropylcellulose) (HPC)
[3] = dose: 200.0 mg/kg/injection, schedule: Q01DX009 (ip), vehicle: Klucel (hydroxypropylcellulose) (HPC)
[4] = dose: 200.0 mg/kg/injection, schedule: Q04DX003 (ip), vehicle: Klucel (hydroxypropylcellulose) (HPC)
[5] = dose: 400.0 mg/kg/injection, schedule: Q01DX009 (ip), vehicle: Klucel (hydroxypropylcellulose) (HPC)
[6] = dose: 50.0 mg/kg/injection, schedule: Q01DX009 (ip), vehicle: saline
[7] = dose: 100.0 mg/kg/injection, schedule: Q01DX009 (ip), vehicle: saline
[8] = dose: 100.0 mg/kg/injection, schedule: Q04DX003 (ip), vehicle: saline
[9] = dose: 100.0 mg/kg/injection, schedule: Q04DX002 (ip), vehicle: saline with Tween-80
[10] = dose: 100.0 mg/kg/injection, schedule: Q04DX003 (ip), vehicle: saline with Tween-80
[11] = dose: 200.0 mg/kg/injection, schedule: Q04DX003 (ip), vehicle: saline with Tween-80
[12] = dose: 100.0 mg/kg/injection, schedule: Q01DX001 (ip), vehicle: Klucel (hydroxypropylcellulose) (HPC)
[13] = dose: 200.0 mg/kg/injection, schedule: Q01DX001 (ip), vehicle: Klucel (hydroxypropylcellulose) (HPC)

Measured: T/C

CCOc1ccc(/C=N/NS(=O)(=O)c2ccc(C)cc2)cc1
inactive: [1] 104 % of control | [2] 91 % of control | [3] 100 % of control | [4] 92 % of control | [5] 94 % of control | dose: 400.0 mg/kg/injection, schedule: Q04DX003 (ip), vehicle: Klucel (hydroxypropylcellulose) (HPC) 92 % of control

O=C(COc1cccc([N+](=O)[O-])c1)Nc1ccc(S(=O)(=O)F)cc1
inactive: [1] 102 % of control | [3] 100 % of control | [5] 100 % of control

CN(C)CCOCCOC(=O)N1c2ccccc2Sc2ccccc21
inactive: dose: 6.25 mg/kg/injection, schedule: Q01DX009 (ip), vehicle: saline 106 % of control | dose: 6.25 mg/kg/injection, schedule: Q04DX003 (ip), vehicle: saline 102 % of control | dose: 12.5 mg/kg/injection, schedule: Q01DX009 (ip), vehicle: saline 95 % of control | dose: 12.5 mg/kg/injection, schedule: Q04DX003 (ip), vehicle: saline 105 % of control | dose: 25.0 mg/kg/injection, schedule: Q01DX009 (ip), vehicle: saline 97 % of control | dose: 25.0 mg/kg/injection, schedule: Q04DX003 (ip), vehicle: saline 97 % of control and 98 % of control | [6] 88 % of control | dose: 50.0 mg/kg/injection, schedule: Q04DX003 (ip), vehicle: saline 107 % of control and 109 % of control | [7] 103 % of control | [8] 102 % of control and 109 % of control

O=S1(=O)C(c2ccccc2)C(N2CCCCC2)C1C1CC2c3ccccc3C1c1ccccc12 (stereo not drawn)
inactive: dose: 75.0 mg/kg/injection, schedule: Q01DX001 (ip), vehicle: carboxymethylcellulose (CMC) 91 % of control | dose: 150.0 mg/kg/injection, schedule: Q01DX001 (ip), vehicle: carboxymethylcellulose (CMC) 91 % of control | dose: 300.0 mg/kg/injection, schedule: Q01DX001 (ip), vehicle: carboxymethylcellulose (CMC) 86 % of control

CC(=O)OC1C=C2CCCCC2(C)CC1 (stereo not drawn)
inactive: dose: 50.0 mg/kg/injection, schedule: Q04DX002 (ip), vehicle: saline with Tween-80 96 % of control | [9] 96 % of control | dose: 200.0 mg/kg/injection, schedule: Q04DX002 (ip), vehicle: saline with Tween-80 111 % of control

CCCCP(=O)(CCCC)C1CCCC1
inactive: dose: 100.0 mg/kg/injection, schedule: Q01DX001 (ip), vehicle: saline with Tween-80 103 % of control | dose: 200.0 mg/kg/injection, schedule: Q01DX001 (ip), vehicle: saline with Tween-80 100 % of control | dose: 400.0 mg/kg/injection, schedule: Q01DX001 (ip), vehicle: saline with Tween-80 90 % of control

O=C(O)c1cc2ccccc2cc1O.Oc1cccc2cccnc12.[Cu]
inactive: dose: 0.5 mg/kg/injection, schedule: Q01DX015 (ip), vehicle: carboxymethylcellulose (CMC) 91 % of control | dose: 1.0 mg/kg/injection, schedule: Q01DX015 (ip), vehicle: carboxymethylcellulose (CMC) 91 % of control | dose: 4.0 mg/kg/injection, schedule: Q01DX015 (ip), vehicle: carboxymethylcellulose (CMC) 93 % of control | dose: 8.0 mg/kg/injection, schedule: Q01DX015 (ip), vehicle: carboxymethylcellulose (CMC) 89 % of control and 90 % of control

CC(C)=CCC(=O)Oc1ccccc1C(=O)O
inactive: [10] 92 % of control | [11] 102 % of control

CC1(C(=O)c2ccccc2)CN(C(C)(C)C)C1c1ccccc1 (stereo not drawn)
inactive: dose: 50.0 mg/kg/injection, schedule: Q01DX001 (ip), vehicle: Klucel (hydroxypropylcellulose) (HPC) 97 % of control | [12] 95 % of control | [13] 94 % of control

O=C(O)c1cccc2c1oc1c(O)cccc12
inactive: dose: 25.0 mg/kg/injection, schedule: Q04DX002 (ip), vehicle: Klucel (hydroxypropylcellulose) (HPC) 93 % of control | dose: 50.0 mg/kg/injection, schedule: Q04DX002 (ip), vehicle: Klucel (hydroxypropylcellulose) (HPC) 90 % of control | dose: 100.0 mg/kg/injection, schedule: Q04DX002 (ip), vehicle: Klucel (hydroxypropylcellulose) (HPC) 93 % of control

O=C(O)c1ccc2c(ccc3ccc4ccccc4c32)c1
inactive: dose: 12.5 mg/kg/injection, schedule: Q04DX003 (ip), vehicle: Klucel (hydroxypropylcellulose) (HPC) 100 % of control | dose: 25.0 mg/kg/injection, schedule: Q04DX003 (ip), vehicle: Klucel (hydroxypropylcellulose) (HPC) 89 % of control | dose: 50.0 mg/kg/injection, schedule: Q04DX003 (ip), vehicle: Klucel (hydroxypropylcellulose) (HPC) 96 % of control | [2] 97 % of control | [4] 106 % of control

CCC[CH2][Ge]([CH2]CCC)[O][Ge]([CH2]CCC)[CH2]CCC
inactive: [9] 87 % of control

C[n+]1cccc(C(=O)O)c1
inactive: dose: 50.0 mg/kg/injection, schedule: Q01DX001 (ip), vehicle: carboxymethylcellulose (CMC) 95 % of control | dose: 100.0 mg/kg/injection, schedule: Q01DX001 (ip), vehicle: carboxymethylcellulose (CMC) 95 % of control | dose: 200.0 mg/kg/injection, schedule: Q01DX001 (ip), vehicle: carboxymethylcellulose (CMC) 98 % of control

COC1N(C2CC(O)C(CO)O2)C(=O)NC(=O)C1(F)Br (stereo not drawn)
inactive: dose: 5.0 mg/kg/injection, schedule: Q01DX009 (ip), vehicle: saline 123 % of control | dose: 10.0 mg/kg/injection, schedule: Q01DX009 (ip), vehicle: saline 112 % of control | dose: 20.0 mg/kg/injection, schedule: Q01DX009 (ip), vehicle: saline 122 % of control | dose: 20.0 mg/kg/injection, schedule: Q04DX003 (ip), vehicle: saline 105 % of control | dose: 40.0 mg/kg/injection, schedule: Q04DX003 (ip), vehicle: saline 102 % of control | [6] 103 % of control | dose: 80.0 mg/kg/injection, schedule: Q04DX003 (ip), vehicle: saline 117 % of control | [7] 98 % of control | dose: 160.0 mg/kg/injection, schedule: Q04DX003 (ip), vehicle: saline 108 % of control | dose: 200.0 mg/kg/injection, schedule: Q01DX009 (ip), vehicle: saline 102 % of control | dose: 400.0 mg/kg/injection, schedule: Q01DX009 (ip), vehicle: saline 94 % of control

Cc1ncc2c(=O)n(-c3ccc(C(=O)O)cc3)[nH]c2n1
inactive: dose: 75.0 mg/kg/injection, schedule: Q04DX003 (ip), vehicle: Klucel (hydroxypropylcellulose) (HPC) 103 % of control | [12] 94 % of control | dose: 150.0 mg/kg/injection, schedule: Q04DX003 (ip), vehicle: Klucel (hydroxypropylcellulose) (HPC) 106 % of control | [13] 97 % of control | dose: 300.0 mg/kg/injection, schedule: Q04DX003 (ip), vehicle: Klucel (hydroxypropylcellulose) (HPC) 90 % of control | dose: 400.0 mg/kg/injection, schedule: Q01DX001 (ip), vehicle: Klucel (hydroxypropylcellulose) (HPC) 110 % of control

Cc1ccc2c(c1)SCc1c-2[nH]c2ccccc12
inactive: [10] 103 % of control | [11] 100 % of control | dose: 400.0 mg/kg/injection, schedule: Q04DX003 (ip), vehicle: saline with Tween-80 108 % of control

C=C1C(=O)OC2CCC3OC3CCC12 (stereo not drawn) (tested in a mixture with another compound)
inactive: [8] 103 % of control | dose: 200.0 mg/kg/injection, schedule: Q04DX003 (ip), vehicle: saline 95 % of control

C=C1CC(CCCC2CC(=C)C(=O)O2)OC1=O (stereo not drawn)
inactive: dose: 100.0 mg/kg/injection, schedule: Q04DX002 (ip), vehicle: saline 101 % of control | dose: 200.0 mg/kg/injection, schedule: Q04DX002 (ip), vehicle: saline 111 % of control
